Measured values: patent US5474988A, “5-phenylpyrrolo-1,4-benzoxazine and 5-phenylpyrrolo-1,4-benzothiazine compounds, process and intermediates for their production and pharmaceutical compositions containing them” (Kali-Chemie Pharma GmbH, priority 1993, dated 1995)

Legend:
[1] = tested on: P.A.F.-induced aggregation of blood platelets; assay: anti-P.A.F. action in vitro (P.A.F.-induced platelet aggregation); type: cell-based; conditions: Oryctolagus cuniculus, 10^-5 mole/liter, read-out: Anti-P.A.F. activity in vitro, % inhibition of the P.A.F.-induced aggregation of blood platelets from rabbit blood
From the text: 3. Determination of the anti-P.A.F. action in vitro.
P.A.F. (=Platelet Activating Factor=Platelet Aggregation Factor) is a phospholipid mediator which has a multiplicity of actions. The activation of blood platelet aggregation results in the induction of long-lasting bronchoconstrictions and hyperreactivity of the respiratory passages.
In this test, the effect of the test substances on platelet aggregation induced by addition of P.A.F. in a platelet suspension obtained from rabbit blood was investigated according to the method described by Mikashima et al. (Jap. J. Pharmacol. 44 (1987) 387-391).
A suspension of platelets obtained from rabbit blood was used which contains 4×10^9 platelets/ml in a modified Tyrode buffer solution (=Tyrode solution with the addition of 1.3 mM/l of CaCl2 and 2.5 g/l of gelatine) adjusted to pH 7.4. Tyrode solution is an aqueous solution containing, per liter, 136.9 mmole of NaCl, 2.68 mmole of KCl, 2.31 mmole of CaCl2, 1.0 mmole of MgCl2, 11.9 mmole of NaHCO3, 1.45 mmole of NaH2 PO4 and 5.55 mmole of glucose. The platelets were concentrated from 10 ml blood samples of three rabbits (New Zealand hybrids, body weight 3-4 kg) in each case. To accomplish this, the blood samples were treated with ethylenediaminetetraacetic acid and washed according to the method of Artley et al. (Brit. J. Haematol. 19 (1970), 7-17). A platelet-rich plasma was first separated by centrifugation (20 minutes at 400×g). The platelets were separated from the plasma by repeated centrifugation for 15 minutes at 1400×g.After the centrifugation, the blood platelets remaining in the sediment were resuspended in a Tyrode buffer solution (but without calcium). 0.4 mmole of lysine acetylsalicylate was then added, and the blood platelets were sedimented again after 15 minutes. The sediment was resuspended in the aforementioned modified Tyrode buffer solution, and the number of platelets in the suspension obtained was adjusted to the desired content.
A 40×10^-9 molar P.A.F. solution was employed as a reagent. This solution was prepared from a 1.8×10^-3 molar stock solution in chloroform. To do this, a 10 μl sample of the stock solution was evaporated to dryness and dissolved again in 180 μl of the modified Tyrode buffer solution, to which 0.25% of lipid-free bovine serum albumin had been added. 10^-5 molar working solutions were then prepared from this and stored frozen. Samples of these solutions were appropriately diluted for tests.
In order to carry out the test, 50 μl of the blood platelet suspension and 10 μl of a 40×10^-5 molar solution of the compound to be investigated were added to […] of the modified Tyrode buffer solution with stirring (1000 rpm) in an aggregation tube provided with a small magnetic stirrer. This corresponded to a final test substance concentration of 10^-5 mole/l. After a preincubation time of 90 seconds, 10 μl of the P.A.F. preparation were added. For 4-5 minutes, the aggregation occurring in the aggregation tube was measured by means of a computerized aggregometer.
The aggregation occurring in the test tubes containing only the platelet suspension is rated as 0%. The aggregation occurring in the test tubes containing platelet suspension and P.A.F. preparation, in which a P.A.F.-induced increase in platelet aggregation takes place, is rated as 100%. The aggregation still occurring after addition of the test substances is measured, and from this the inhibition of the P.A.F.-inducedincrease in aggregation which takes place is calculated in %.

5-lipoxygenase = target: T1, 5-lipoxygenase (Cavia porcellus, UniProt A0A286X958); assay: inhibitory activity on free 5-lipoxygenase concentrated from peritoneal PMNs of the guinea-pig (5-HETE formation); type: biochemical; conditions: 10^-5 mole/liter; guinea-pig 5-LO, 37° C.; read-out: In vitro % inhibitory activity on 5-HETE formation caused by free 5-LO
T1 construct: The 5-LO was concentrated in a known manner from PMNs of male Dunkin-Hartley guinea-pigs; endogenous in cells; host or cells: peritoneal PMNs of male Dunkin-Hartley guinea-pigs, homogenized; 10,000 x g supernatant used as enzyme solution
T1 sequence (A0A286X958 1-674): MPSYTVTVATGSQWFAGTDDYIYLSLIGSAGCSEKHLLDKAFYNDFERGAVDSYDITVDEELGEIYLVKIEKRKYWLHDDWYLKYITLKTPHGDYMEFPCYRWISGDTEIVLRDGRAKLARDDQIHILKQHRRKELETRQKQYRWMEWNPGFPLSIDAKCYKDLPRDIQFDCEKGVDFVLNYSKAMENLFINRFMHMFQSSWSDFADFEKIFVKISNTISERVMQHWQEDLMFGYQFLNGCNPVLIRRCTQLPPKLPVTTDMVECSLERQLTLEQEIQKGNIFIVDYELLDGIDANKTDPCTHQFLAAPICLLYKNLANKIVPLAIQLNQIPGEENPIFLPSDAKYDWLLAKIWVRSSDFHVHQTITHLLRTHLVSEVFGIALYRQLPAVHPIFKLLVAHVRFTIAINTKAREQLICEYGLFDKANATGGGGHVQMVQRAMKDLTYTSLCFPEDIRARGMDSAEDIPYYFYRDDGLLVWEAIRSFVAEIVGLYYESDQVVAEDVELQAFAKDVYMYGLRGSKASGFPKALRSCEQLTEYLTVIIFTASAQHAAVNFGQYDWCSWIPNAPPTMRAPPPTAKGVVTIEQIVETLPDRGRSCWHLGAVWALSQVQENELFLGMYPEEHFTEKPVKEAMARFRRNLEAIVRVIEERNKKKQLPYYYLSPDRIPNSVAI
From the text: 4b. In vitro determination of inhibitory activity on 5-lipoxygenase concentrated from peritoneal PMNs of the guinea-pig.
An inhibition of 5-lipoxygenase can be caused by direct inhibitory action of the substances on the enzyme and/or by interference with the activation of the enzyme. While in test 4a the 5-lipoxygenase inhibition of the substances was investigated in rat PMN cells, in test 4b the inhibitory activity of the substances was investigated on free 5-LO concentrated from guinea-pig PMN cells according to the method of D. Aharony et al., J. Biol. Chem. 261 (1986), 11512-11519 (1986).
The 5-LO was concentrated in a known manner from PMNs of male Dunkin-Hartley guinea-pigs (body weight 400 to 500 g) as follows. 10 ml of a solution containing 27.9 g/l of sodium thioglycolate were injected i.p. into the animals in order to induce the PMN invasion as a result of this inflammatory stimulus. After 22 hours, the animals were sacrificed by lethal ether anaesthesia. 70 ml of HBSS without Ca^++ and Mg^++ ions and containing 0.2% by weight of sodium citrate were then injected into the abdominal cavity. The cell suspension (>80% of the cells are PMNs) was withdrawn from the abdominal cavity, filtered through a cheese-making filter cloth, and washed twice with a 50 mM potassium phosphate buffer solution of pH 7.4, which contained 0.5 mM ethylenediaminetetraacetic acid, 1% by weight of gelatine and 20 μM indomethacin. The cells were resuspended, and the PMN suspension containing 10^8 cells/ml was homogenized three times for 15 seconds each in an ice-bath in a homogenizer of the Labsonic™ type set at high speed. The resulting suspension was centrifuged at 4° C. (15 minutes at 10,000×g). The supernatant liquid was used for the investigation as a solution of the free 5-LO enzyme.
The experiments were carried out at 37° C. for 7 minutes using 0.625 ml samples of this enzyme solution. For the experiments, the enzyme solution (=equivalent of 2.5×10^7 cells), 0.5 mM glutathione, 1 mM ATP and 0.3 mM calcium chloride were added to test tubes. […] of the test substance were added to the samples dissolved in sufficient dimethylformamide such that the dimethylformamide concentration in each test tube is 0.5%. Only dimethylformamide was added to the control samples. After 2 minutes, the formation of 5-(S)-hydroxy-6,8,11,14-eicosatetraenoic acid (=[…]) was initiated by addition 10 μM arachidonic acid. After 5 minutes, the reaction was terminated by addition of 0.625 ml of a mixture of methyl acetate/methanol/0.2 m citric acid 15:2:0.5 v/v/v. 5-HETE was extracted twice using this solvent mixture. The 5-HETE-containing phases were combined and evaporated to dryness under a nitrogen atmosphere. The residue was taken up in a mixture of methanol/water/acetic acid 75:21:0.02 v/v/v having a pH of 5.7, and the solution was investigated for its content of 5-HETE by means of reverse phase HPLC. To accomplish this, a […] silanized silica gel column (Hichrom® ODS2, 250×4.6 mm) was employed as the adsorbent and a mixture of methanol/water/acetic acid 75:21:0.02 adjusted to pH 5.7 with ammonia and having a flow rate of 1 ml/min was used as the eluent. 5-HETE, which was eluted as a single peak after 20 minutes, was identified by comparison with standard solutions eluted at the same time and determined using a UV light detector at a wavelength of 235 nm. Quantitative determination was carried out by comparison of the peak area obtained with peak areas occurring in the calibrated standard solutions. From the 5-HETE contents of the samples determined, the inhibitory activity of the test substances was calculated in % inhibition of 5-HETE synthesis in comparison to the control samples containing no test substance.

Row | inhibition at 10 µM (5-lipoxygenase) [%] | Compound | inhibition at 10 µM [1] [%]
1 | 100 | Cc1ccnc(N2CCN(C(=O)CC3Cn4c(-c5ccc(O)cc5)c(C)c5cccc(c54)O3)CC2)c1 (centres unmarked) [Example 17] | 99
2 | 100 | Cc1ccnc(N2CCN(CCCCC3Cn4c(-c5cc(C)c(O)c(C)c5)c(C)c5cccc(c54)O3)CC2)c1 (centres unmarked) [Example 18] | 78
3 | 97 | Cc1ccnc(N2CCN(CCC3Cn4c(-c5ccc(O)cc5)c(C)c5c(F)ccc(c54)O3)CC2)c1 (centres unmarked) [Example 22] | 84
4 | 63 | Cc1ccnc(N2CCN(C(=O)CCC3Cn4c(-c5cc(C)c(O)c(C)c5)c(C)c5c(F)ccc(c54)O3)CC2)c1 (centres unmarked) [Example 54] | 65
